Test results taken from paper PMC10054465, “Design, Synthesis, and Antiviral Activities of New Benzotriazole-Based Derivatives” (Pharmaceuticals, 2023).
“Also recorded” adds a separate entry of the source. Where two headings read alike, the source gives them in different places.

Key:
BVDV = experiment: microbe, parasite or virus in culture; format: cell-based; conditions: Bovine viral diarrhea virus isolates and strains, MDBK, read-out: BVDV EC50
Sb-1 = experiment: microbe, parasite or virus in culture; format: cell-based, human enterovirus C (poliovirus type-1); conditions: Enterovirus C, Vero 76, read-out: Sb-1 EC50
[1] = Cytotoxicity in mock-infected Vero-76 monolayers; conditions: African green monkey (Cercopithecus aethiops)
VV = experiment: microbe, parasite or virus in culture; format: cell-based; conditions: Orthopoxvirus vaccinia, Vero 76, read-out: VV EC50
VSV = experiment: microbe, parasite or virus in culture; format: cell-based; conditions: Vesicular stomatitis virus, Vero 76, read-out: VSV EC50
HSV-1 = experiment: microbe, parasite or virus in culture; format: cell-based, human herpesvirus 1; conditions: Human alphaherpesvirus 1, Vero 76, read-out: HSV-1 EC50
YFV = experiment: microbe, parasite or virus in culture; format: cell-based; conditions: Yellow fever virus, BHK-21, read-out: YFV EC50
CVB5 [2] = experiment: microbe, parasite or virus in culture; format: cell-based, human enterovirus B (coxsackievirus B5); conditions: Enterovirus B, CVB5, Vero 76, read-out: CVB5 EC50
RSV = experiment: microbe, parasite or virus in culture; format: cell-based; conditions: human respiratory syncytial virus, Vero 76, read-out: RSV EC50
Reo-1 = experiment: microbe, parasite or virus in culture; format: cell-based, Reovirus type-1; conditions: Reovirus sp., BHK-21, read-out: Reo-1 EC50
[3] = Cytotoxicity in mock-infected BHK-21 monolayers (MTT); conditions: Syrian hamster (Mesocricetus auratus)
[4] = Cytotoxicity in mock-infected MDBK cells (MTT); conditions: cattle (Bos taurus), mock-infected
CVB = conditions: cited from earlier work
CVB5 [5] = experiment: Cell pre-treatment assay (viral yield by plaque assay); format: cell-based, human enterovirus B (coxsackievirus B5); conditions: Vero-76 pre-treated 2 h with 20 µM, then CVB5; not treated control 3 × 10^5 PFU/mL
CVB5 [6] = experiment: Time of addition assay; format: cell-based, human enterovirus B (coxsackievirus B5); conditions: 20 µM
CVB5 virions = experiment: Virucidal activity assay; format: cell-based, human enterovirus B (coxsackievirus B5); conditions: 20 µM, 4 °C or 37 °C
[7] = Vero-76 cell monolayers, mock-infected
[8] = BHK-21 cell monolayers, mock-infected
[9] = African green monkey (Cercopithecus aethiops)

| SMILES | EC50 (BVDV) [µM] | EC50 (Sb-1) [µM] | CC50 [1, 7] [µM] | EC50 (VV) [µM] | EC50 (VSV) [µM] | EC50 (HSV-1) [µM] | EC50 (YFV) [µM] | EC50 (CVB5 [2]) [µM] | EC50 (RSV) [µM] | EC50 (Reo-1) [µM] | CC50 [3, 8] [µM] | melting point [°C] | CC50 [4] [µM] | further results |
| --- | --- | --- | --- | --- | --- | --- | --- | --- | --- | --- | --- | --- | --- | --- |
| Nc1ccc(Cn2nc3cc(F)c(F)cc3n2)cc1 [11d] | > 100 | > 100 | > 100 | > 100 | > 100 | > 100 | > 100 | 7.6 ± 1.9 | > 100 | > 100 | > 100 | 149 to 150 | > 100 |  |
| C[C@@]1(O)[C@H](O)[C@@H](CO)O[C@H]1n1ccc(N)nc1=O [NM107, 2’-C-methylcytidine, reference compound] |  |  |  |  |  |  |  |  |  | 6 ± 2.1 | > 100 |  |  |  |
| O=C(CCC(=O)Nc1ccc(-n2nnc3cc(Cl)c(Cl)cc32)cc1)Nc1ccc(-n2nnc3cc(Cl)c(Cl)cc32)cc1 [A, N1,N4-bis(4-(5,6-dichloro-1H-benzo[d][1,2,3]triazol-1-yl)phenyl)succinamide] |  |  |  |  |  |  |  |  |  |  |  |  |  | activity against CVB (in words) (CVB): not active |
| CCCCNC(=O)Nc1cccc(Cn2nc3cc(C)c(C)cc3n2)c1 [32b] |  | 85 | > 100 | > 100 | > 100 | > 100 | > 100 | > 100 | > 100 | > 100 | > 100 | 288 to 289 | > 100 |  |
| O=C(Nc1cccc(Cn2nnc3cc(Cl)c(Cl)cc32)c1)c1ccc(Cl)cc1 [43a, N-(3-((5,6-dichloro-1H-benzo[d][1,2,3]triazol-1-yl)methyl)phenyl)-4-chlorobenzamide] | > 100 | > 100 | > 100 | > 100 | > 100 | > 100 | > 100 | 9 ± 1.6 | > 9.2 | > 100 | > 100 |  | > 100 | CC50 ([1]; Vero-76 cells): 9.2 µM; TEER values versus control (in words) (Caco-2 cell monolayers): did not significantly differ from control values |
| Nc1cccc(Cn2nnc3cc(Cl)c(Cl)cc32)c1 [6a] | > 100 | > 100 | > 100 | 62.5 ± 16.2 | > 100 | > 100 |  | 52 ± 3.6 | > 100 |  | 57 | 161 to 162 | > 100 |  |
| Cc1cc2nn(Cc3cccc(NC(=O)c4ccc(F)cc4)c3)nc2cc1C [25b] | > 100 | > 100 | > 100 | > 100 | > 100 | > 100 | > 100 | 47 ± 2.2 | > 100 | > 100 | > 100 | 211 to 212 | > 100 |  |
| Cc1cc2nn(Cc3ccc(N)cc3)nc2cc1C [11b] | > 100 | > 100 | > 100 | > 100 | > 100 | > 100 | > 100 | 6 | > 100 | > 100 | > 100 | 169 to 171 | > 100 |  |
| O=C(CCC(=O)Nc1ccc(Cn2nnc3cc(Cl)c(Cl)cc32)cc1)Nc1ccc(Cn2nnc3cc(Cl)c(Cl)cc32)cc1 [B, N1,N4-bis(4-((5,6-dichloro-1H-benzo[d][1,2,3]triazol-1-yl)methyl)phenyl)succinamide] |  |  |  |  |  |  |  |  |  |  |  |  |  | EC50 (CVB): 23 µM |
| CCCNC(=O)Nc1ccc(Cn2nnc3cc(C)c(C)cc32)cc1 [99b] | > 100 | > 100 | > 100 | > 100 | > 100 | > 100 | > 100 | 16 | > 100 | > 100 | > 100 | 190 to 192 | > 100 |  |
| COc1cc(C(=O)Nc2cccc(Cn3nnc4cc(Cl)c(Cl)cc43)c2)cc(OC)c1OC [41a] | > 100 | > 100 | > 100 | > 100 | > 100 | > 100 | > 100 | 18.5 ± 2.1 | > 10.5 | > 7 | > 100 | 142 to 144 | > 100 | CC50 ([1]; Vero-76 cells): 10.5 µM; CC50 ([3]; BHK-21 cells): 7 µM |
| COc1cc(C(=O)Nc2ccc(Cn3nnc4c(F)cccc43)cc2)cc(OC)c1OC [21e] |  | > 100 | > 100 | > 100 | > 100 | > 100 |  | > 100 | 20 ± 2 |  | 60 | 177 to 179 | 72 |  |
| CC(C)(C)C(=O)Nc1ccc(Cn2nnc3c(F)cccc32)cc1 [18e, N-(4-((4-fluoro-1H-benzo[d][1,2,3]triazol-1-yl)methyl)phenyl)pivalamide] | > 100 | > 100 | > 100 | > 100 | > 100 | 52 ± 9.2 | > 100 | 12.4 ± 0.6 | > 9 | > 100 | > 100 |  | > 100 | CC50 ([1]; Vero-76 cells): 9 µM; viral load after cell pre-treatment (CVB5 [5]): 7× 10^4 PFU/mL; antiviral effect, compound added during the infection period (in words) (CVB5 [6]; Vero-76, CVB5 m.o.i. 1): antiviral effect was kept; titer reduction, compound added during subsequent steps of the replication cycle (in words) (CVB5 [6]; Vero-76, CVB5 m.o.i. 1, post infection): No titer reduction; virucidal effect on CVB5 titer (in words) (CVB5 virions): no virucidal activity; also recorded: no difference between the titers; TEER values versus control (in words) (Caco-2 cell monolayers): did not significantly differ from control values; % Late apoptotic cells (Vero-76 cells): 8.3 ± 0.34%; % Live cells (Vero-76 cells): 72.87 ± 1.21%; % Necrotic cells (Vero-76 cells): 12.44 ± 2.35%; % Late apoptotic cells (Vero-76 cells; [9]): 1.03 ± 0.34%; % Live cells (Vero-76 cells; [9]): 94.45 ± 2.55%; % Necrotic cells (Vero-76 cells; [9]): 4.12 ± 2.3% |
| O=c1cnn([C@@H]2O[C@H](CO)[C@@H](O)[C@H]2O)c(=O)[nH]1 [6az-ur, 6-azauridine, reference compound] |  |  | 9.3 ± 1.6 |  |  |  | 46 ± 2.5 |  | 1.1 ± 0.4 |  | > 100 |  |  |  |
| Cc1cc2nnn(Cc3ccc(NC(=O)NC4CCCCC4)cc3)c2cc1C [100b] | > 100 | > 100 | > 100 |  | > 100 | > 100 | > 100 | 50 | > 100 | > 100 | > 100 | 216 to 218 | > 100 |  |
| CC(=O)Nc1ccc(Cn2nnc3ccccc32)cc1 [79c] | > 44 | > 72 | 72 | > 72 | > 72 | > 72 | > 86 | > 72 | > 9 | > 86 | 86 | 187 to 189 | 44 | CC50 ([1]; Vero-76 cells): 9 µM |
